Reference: patent US20050132448A1, “Assay for beta cell toxic macrolides” (priority 2001, published 2005)

Tests used:
F-ATPase = details: 275 nM; cited from earlier work
vATPase [1] = target: T1, vATPase (Mus musculus, UniProt P63082); test: V-ATPase activity assay on kidney homogenates of bafilomycin A1 treated mice; type: in vivo; details: for Bafilomycin A1 sensitive ATPase activity ± SD / total ATPase activity ± SD: kidney homogenate; for reduction of bafilomycin A1 sensitive ATPase activity: vs control
T1 construct: from tissue; host or cells: kidney of male Balb/c mice (crude homogenate, 700 x g supernatant)
T1 sequence (Q91V37 whole entry): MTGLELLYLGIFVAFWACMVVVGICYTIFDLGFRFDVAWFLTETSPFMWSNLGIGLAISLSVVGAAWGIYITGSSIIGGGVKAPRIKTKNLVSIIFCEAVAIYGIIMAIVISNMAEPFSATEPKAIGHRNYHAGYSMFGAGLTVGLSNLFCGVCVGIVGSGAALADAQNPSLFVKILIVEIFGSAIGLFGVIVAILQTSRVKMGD
T1 sequence (P63082 whole entry): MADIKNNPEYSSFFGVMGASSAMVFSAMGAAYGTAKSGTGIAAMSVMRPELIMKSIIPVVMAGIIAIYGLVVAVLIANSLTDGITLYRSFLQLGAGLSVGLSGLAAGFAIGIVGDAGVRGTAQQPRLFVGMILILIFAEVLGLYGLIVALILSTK
Experimental: (§1) Male Balb/c mice were provided by the Monash University Central Animal House and Breeding Facility. The Monash University Department of Biochemistry Animal Ethics Committee approved all animal experimentation. Bafilomycin A1 (Sigma) was dissolved in 70% ethanol then diluted 1 in 10 with sterile phosphate buffered saline (PBS) to give a working stock of 4.8 μg/ml. Groups of between 3 and 9 mice as indicated were administered 12 μg per kilogram (body weight) bafilomycin A1 by intraperitoneal injection, which should achieve a final concentration in the blood of 275 nM bafilomycin A1 assuming a blood volume of 70 ml per kg for mice. […] Control mice received the ethanol/PBS carrier solution that lacked the inhibitor.
Seven control mice, 4 mice treated 1 day previously and 4 mice treated 7 days previously with bafilomycin A1 were anaesthetised with 35 mg per kg body weight pentobarbitone (Nembutal) and the kidneys removed and immediately frozen on dry ice and stored at −80° C. until processed. The kidneys were weighed then homogenised in liquid nitrogen using a mortar and pestle. 1 ml of 10 mM Tris-Cl pH 8.0 and 2 mM Mg2Cl containing protease inhibitors was then added and the tissue was further homogenised with 5 strokes of a dounce homogeniser. One ml of 0.5 M sucrose, 40 mM Tris-Cl pH 8, 2 mM Mg2Cl was then added to the homogenate and the suspension was clarified by centrifugation at 700×g for 10 minutes at 4° C. Supernatents containing soluble and membrane bound components were then assayed in duplicate for ATPase activity by incubating 100 μl of a 1:100 dilution of the tissue extract with 1 mM ATP in Tris buffered saline (TBS) for 30 minutes in the well of a microtitre plate in the presence or absence of 15 μl of a 1 μM solution of bafilomycin A1 in a final reaction volume of 200 μl. The inorganic phosphate released was measured using the one-step method of Chan et al., (1986), and absorbances were read in a microtitre plate reader at a wavelength of 660 nm. Results were corrected for background phosphate concentration and ATP autohydrolysis. The protein content of each kidney extract was determined using the Bradford reagent (Biorad).

vATPase [2] = details: 275 nM; cited from earlier work
NOD/lt mice = test: Acceleration of diabetes onset in NOD mice; type: in vivo; details: 12 ng per gram i.p. on 5 consecutive days, 11-week-old female mice
Experimental: The NOD mouse develops spontaneous diabetes due to an autoimmune mediated destruction of the pancreatic islet β-cells. The characteristics of diabetes development in the NOD mouse parallel those in humans, making the NOD mouse a useful model of human Type 1 diabetes. Lymphocytic infiltrates in the pancreatic islets, termed insulitis, first develops in NOD mice soon after weaning at 4 weeks of age and hyperglycaemia first appears from 18 to 32 weeks of age. Bafilomycin A1 was administered to NOD mice to test whether the onset of hyperglycaemia was accelerated.
Eleven-week-old female NOD/lt mice were injected intraperitoneally with either 12 ng per gram body weight of bafilomycin A1 (10 mice) or phosphate buffered saline carrier solution (10 mice) on each of 5 consecutive days. Blood glucose was monitored weekly and diabetes defined as a blood glucose measurement greater than 11 mmol/L.

Balb/c mice = test: Plasma immunoreactive insulin (radioimmunoassay); type: in vivo; details: 7 days after treatment
Experimental: as §1
Groups of 9 mice were treated with bafilomycin A1 or carrier solution then fasted, anaesthetised with penotobarbitone and challenged with glucose as described for the OGTT. Blood samples for insulin assay were collected from the orbital plexus from fasted mice or from mice 15 minutes after glucose challenge using 4×75 μl haematocrit tubes for each bleed. Serum samples were diluted 1 in 5 or 1 in 20 then assayed in duplicate for insulin content using a Linco sensitive rat insulin radioimmunoassay kit. […] Insulin content was determined by sensitive rat insulin RIA using a 1 in 1,000 dilution of the homogenates.

C57B1/6J mice = test: Size and number of pancreatic islets after vATPase inhibitors; type: in vivo
Experimental: The effect of vATPase inhibitors on the size and number of pancreatic islets was analysed in C57B1/6J using either bafilomycin A1 (BA1) or concanamycin A (CMA). The effect of Streptozotocin, an islet beta-cell specific toxin produced by Streptomyces achromogenes was also examined, to enable comparison with the effect of vATPase inhibitors.
Groups of 4 female C57B1/6J mice were injected with 5 doses on 5 consecutive days of 12 ng/g body weight BA1, CMA or the well characterised islet β-cell toxin streptozotocin. Pancreases were removed on day 84 and 3 formalin-fixed sections per mouse were immunostained for insulin. The area of insulin-positive islets was measured on digital images using MCID software.

P-ATPase = details: 275 nM; cited from earlier work

CO/C1=C\C(C)=C\[C@@H](C)[C@@H](O)[C@@H](C)C/C(C)=C/C=C/[C@H](OC)[C@@H]([C@@H](C)[C@@H](O)[C@H](C)[C@@]2(O)C[C@@H](O)[C@H](C)[C@@H](C(C)C)O2)OC1=O [bafilomycin A1]
inhibition of F-ATPase activity (F-ATPase): no detectable inhibition
kidney % of animal weight ± SD (vATPase [1]; 1 day after treatment): 0.90 ± 0.11%
weight or protein contents of the kidneys, treated vs control (vATPase [1]; 1 day and 7 days after treatment): no significant differences
kidney % of animal weight ± SD (vATPase [1]; 7 day after treatment): 0.90 ± 0.15%
Bafilomycin A1 sensitive ATPase activity ± SD (vATPase [1]; 1 day after 12 μg/kg i.p.): 0.80 ± 0.30 Nmol/min/mg protein
total ATPase activity ± SD (vATPase [1]; 1 day after 12 μg/kg i.p.): 4.4 ± 0.5 Nmol/min/mg protein
Bafilomycin A1 sensitive ATPase activity ± SD (vATPase [1]; 7 day after 12 μg/kg i.p.): 0.80 ± 0.30 Nmol/min/mg protein
total ATPase activity ± SD (vATPase [1]; 7 day after 12 μg/kg i.p.): 4.8 ± 0.8 Nmol/min/mg protein
reduction of bafilomycin A1 sensitive ATPase activity (vATPase [1]; kidney, 1 day after treatment): 50%
reduction of bafilomycin A1 insensitive ATPase activity (vATPase [1]; kidney, 1 day and 7 days after treatment): not in bafilomycin A1 insensitive ATPase activity
reduction of bafilomycin A1 sensitive ATPase activity (vATPase [1]; kidney, 7 days after treatment): 50%
inhibition of in vitro vATPase activity (vATPase [2]): sufficient to inhibit
onset of islet beta cell destruction and hyperglycaemia (NOD/lt mice): slight acceleration
plasma insulin level fifteen minutes after glucose challenge (Balb/c mice): 15±10
fasting plasma immunoreactive insulin level (Balb/c mice; fasting): 1.2±0.8
No. islets per mm^2 pancreas section (C57B1/6J mice; day 84, 5 daily doses of 12 ng/g body weight): 0.85 per mm^2 pancreas section
effect on islet number and size (C57B1/6J mice; i.p. 12 ng/gram body weight): increased the number of small islets
Median size (C57B1/6J mice; insulin-positive islets, day 84, 5 daily doses of 12 ng/g body weight): 3830 μm^2
inhibition of P-ATPase activity (P-ATPase): no detectable inhibition
